From US6458577B1, “Methods of culturing and assaying a virus in a specimen and compositions and cell lines for doing the same” (priority 1997, dated 2002)
Values joined by “and” are separate entries in the source; they are usually repeats but may differ in a detail not shown here. Equal entries are not always repeated. Marks after values point to notes of the source that are not given here.

Key:
[1] = system: CMV in mink lung cells (ATCC No. CCL64); assay: CMV shell vial culture in NaB-treated mink lung cells, immunofluorescent staining of IE antigen, count of stained nuclei; type: cell-based; settings: for # of Foci (average # of stained nuclei counted from three shell vials): 80 mM sodium butyrate, mink lung
HSV-1 in mink lung cells = assay: HSV-1 shell vial culture in NaB-treated mink lung cells, foci of cytopathic effect under light microscope; type: cell-based; settings: for cpe = foci of cytopathic effect: mink lung cells, average of two shell vials
Experimental: (§1) Mink lung cells available from American Type Culture Collection ATTC No. CCL64 are provided. The cells are received in frozen vials from ATCC and are prepared by first thawing in a 37° C. water bath. The thawed cells are removed from the bath and cultured in a tissue culture flask with Opti MEM culture medium supplemented with 5% fetal calf serum and non-essential amino acids, available from Life Technologies, Inc., of Gaithersburg, Md., and the antibiotics penicillin (100 units/ml), streptomycin (100 μg/ml) and the fungizone amphotericin (0.25 μg/ml). The cultured cells reach a complete monolayer in about 3 to 4 days. The mink lung cells are propagated by trypsinization and approximately 2.5×10^5 dispersed cells per shell vial are seeded in shell vials with cover slips. The shell vials are incubated at 37° C. for 24 hours or until the cells form a monolayer.
Mink lung cells were prepared as described in Example 1. Cells were then infected with HSV-1 (originally from clinical specimens but passaged once in tissue culture so virus content is assured). The HSV-1 culture fluid was diluted 1:1000 before use for inoculation. In each shell vial, 0.2 ml of inoculum was used. After centrifuging for 45 minutes at 700×g at 23° C., 0.5 ml of Opti-MEM with 2% fetal calf serum was added to each vial and incubated overnight at 37° C. The following day, the cytopathic effect of the inoculated culture was observed under light microscope. The results are reported in Table 2 and are from the average of two shell vials.

CMV in MRC-5 cells = assay: CMV shell vial culture in NaB-treated MRC-5 cells, immunofluorescent staining, count of stained nuclei; type: cell-based, human; settings: for counts of positive stained nuclei from 2 shell vials: 80 mM sodium butyrate 24 hours before infection, MRC-5, cell age 2 days; for MRC-5 cells # of stained nuclei: 2 mM CaCl2, 1% DMSO, 10^-5M dexamethasone after infection
Experimental: (§2) The cells were then treated with a 5 mM sodium butyrate (NaB) tissue culture solution, prepared by dissolving the appropriate amount of NaB in tissue culture media and filtering the solution, and incubated for 16 to 24 hours. After incubation the NaB and tissue culture media is removed and the treated cells are inoculated with 0.2 ml of CMV inoculum originally from a clinical specimen obtained from urine and prepared by putting the specimen into a viral transport medium containing Hank's buffer, 1% bovine albumin and the antibiotics penicillin (200 units/ml) and streptomycin (200 μg/ml) and the fungizone amphotericin (0.5 μg/ml). After inoculation the shell vials are centrifuged at 700×g for 45 minutes at 23° C. After centrifugation, 0.5 ml of fresh media is added to each vial and the vials are incubated at 37° C. for 16 to 24 hours. After incubation the media is removed and the cell layers are rinsed with phosphate buffered saline (PBS), fixed with cold acetone for 10 minutes, and rinsed again with PBS.
(§3) After fixing, the cells are stained by adding 100 μl of CMV monoclonal antibody (mAb), incubated at 37° C. for 45 minutes and then rinsed with PBS. The CMV mAb used is E-13 monoclonal antibody against immediate early (IE) antigen of CMV. This antibody is used as a primary antibody in the first step of staining and is available from Accurated Chemical and Scientific Co., Westbury, N.Y. After the first staining step 100 μl of biotin which is conjugated with antimouse IgG is added followed by additional incubation at 37° C. for 45 minutes. The biotin complex is available from Boerhinger Mannheim Co., Indianapolis, Ind. The cells are rinsed again with PBS after incubation and then incubated with 100 μl of streptavidin conjugated with fluorescein isothiocyanate (FITC) for 45 minutes at 37° C. The streptavidin complex is also available from Boerhinger Mannheim Co., Indianapolis, Ind. After a final rinse with PBS, a coverslip removed from the shell vial is mounted on the slide which is then examined under a fluorescence equipped microscope manufactured in Germany by Carl Zeiss, Inc., and available from W. Nuhsbaum, McHenry, II. The specific apple-green stained nuclei were counted. The results are reported in Table 1 as positive stained nuclei as an average of four shell vials.
Conventionally, human embryonic lung (HEL) fibroblast cells, such as the MRC-5 cell line which is available from Diagnostic Hybrids, Inc., Athens, Ohio, are used worldwide for CMV culture and viral isolation.
(§4) These examples were prepared using the same procedure as Example 1, except that the concentration of NaB used was varied and both mink lung cells and MRC-5 cells were used. Also, the MRC-5 were treated with NaB before infection and 2 mM CaCl2, 1% DMSO and 10^−5M dexamethasone after infection. Table 3 indicates the concentration of NaB used and the results obtained.
(§5) These examples used the same procedure as Example 1 for CMV growth except that the age of the cells were varied, the cells were treated with 80 mM sodium butyrate 24 hours before infection, and the MCR-5 cells were treated 2 mM calcium chloride (CaCl2), 1% dimethyl sulfoxide (DMSO)and 10^−5M dexamethasone after infection.
as §5, with “MRC-5” for “MCR-5”, “(DMSO), and” for “(DMSO)and”, “infection. The cell age is measured as the time after seeding of the cells in the shell vial.” for “infection.”

[2] = system: CMV in mink lung cells (ATCC No. CCL64); assay: CMV shell vial culture in NaB-treated mink lung cells, immunofluorescent staining of IE antigen, count of stained nuclei; type: cell-based; settings: for Treated: average # of nuclei staining from three shell vials: 80 mM sodium butyrate 24 hours before CMV infection; for Treated: average # of nuclei staining from three shell vials / counts of positive stained nuclei from 2 shell vials / # of Foci (average # of stained nuclei counted from three shell vials): mink lung; for counts of positive stained nuclei from 2 shell vials: 80 mM sodium butyrate 24 hours before infection; for # of Foci (average # of stained nuclei counted from three shell vials): 80 mM sodium butyrate; for # positive stained nuclei: average of four shell vials
Experimental: as §1, §2
as §3, with “vials. […]” for “vials.”
as §4, with “obtained. […]” for “obtained.”
These examples used the same procedure as Example 1 for CMV growth except that the time of treatment with sodium butyrate was varied, i.e., the cells were treated with 80 mM sodium butyrate for different times before infection, and the MRC-5 cells were treated with 2 mM calcium chloride (CaCl2), 1% dimethyl sulfoxide (DMSO) and 10^−5M dexamethasone after infection.

CCCC(=O)[O-].[Na+] [NaB, sodium butyrate]
# of Foci (average # of stained nuclei counted from three shell vials) ([1]; time of treatment 2 hours before CMV infection): 126 | # of Foci (average # of stained nuclei counted from three shell vials) ([1]; time of treatment 8 hours before CMV infection): 306 | enhancement of CMV expression ([1]; 2 hour treatment of mink lung cells with NaB (80 mM)): more than a two fold enhancement | time of treatment required for optimum enhancement of CMV expression ([1]; mink lung cells, 80 mM NaB): at least 8 hours | cpe = foci of cytopathic effect (HSV-1 in mink lung cells; NaB 2.5 mM, 16 to 24 hours before HSV-1 infection (1:1000)): 18 | cpe = foci of cytopathic effect (HSV-1 in mink lung cells; NaB 5.0 mM before HSV-1 infection): 20 | cpe = foci of cytopathic effect (HSV-1 in mink lung cells; NaB 10.0 mM before HSV-1 infection): 22 | cpe = foci of cytopathic effect (HSV-1 in mink lung cells; NaB 20 mM before HSV-1 infection): 12 | sensitivity for HSV isolation and detection versus RK cells (in words) (HSV-1 in mink lung cells; NaB treated mink lung cells, Table 2): comparable sensitivity | Treated: average # of nuclei staining from three shell vials (CMV in MRC-5 cells; 80 mM sodium butyrate 24 hours before CMV infection, MRC-5, cell age 4 days, CaCl2, DMSO, dexamethasone after infection): 4 | counts of positive stained nuclei from 2 shell vials (CMV in MRC-5 cells; CaCl2, DMSO, dexamethasone after infection, inoculum 10^-0 (no dilution)): 39/29 | counts of positive stained nuclei from 2 shell vials (CMV in MRC-5 cells; CaCl2, DMSO, dexamethasone after infection, inoculum 10^-1 (1:10 dilution)): 3/1 | counts of positive stained nuclei from 2 shell vials (CMV in MRC-5 cells; CaCl2, DMSO, dexamethasone after infection, inoculum 10^-2 (1:100 dilution)): 0/0 | MRC-5 cells # of stained nuclei (CMV in MRC-5 cells; NaB 10 mM before CMV infection): 2 and 3 | MRC-5 cells # of stained nuclei (CMV in MRC-5 cells; NaB 20 mM before CMV infection): 2 | MRC-5 cells # of stained nuclei (CMV in MRC-5 cells; NaB 80 mM before CMV infection): 7 and 6 | effect on susceptibility of mink lung cells to CMV infection at different cell age (in words) ([2]; 80 mM NaB, cell age 2 to 7 days, Table 5): enhanced the susceptibility | Treated: average # of nuclei staining from three shell vials ([2]; cell age 2 days): 123* | Treated: average # of nuclei staining from three shell vials ([2]; cell age 3 days): 121 | Treated: average # of nuclei staining from three shell vials ([2]; cell age 5 days): 78 | Treated: average # of nuclei staining from three shell vials ([2]; cell age 7 days): 30 | counts of positive stained nuclei from 2 shell vials ([2]; cell age 2 days, inoculum 10^-0 (no dilution)): 232/220 | counts of positive stained nuclei from 2 shell vials ([2]; cell age 2 days, inoculum 10^-1 (1:10 dilution)): 44/52 | counts of positive stained nuclei from 2 shell vials ([2]; cell age 2 days, inoculum 10^-2 (1:100 dilution)): 5/2 | counts of positive stained nuclei from 2 shell vials ([2]; cell age 3 days, inoculum 10^-0 (no dilution)): 242/309 | counts of positive stained nuclei from 2 shell vials ([2]; cell age 3 days, inoculum 10^-1 (1:10 dilution)): 47/43 | counts of positive stained nuclei from 2 shell vials ([2]; cell age 3 days, inoculum 10^-2 (1:100 dilution)): 1/2 | # of Foci (average # of stained nuclei counted from three shell vials) ([2]; time of treatment 4 hours before CMV infection): 234 | # of Foci (average # of stained nuclei counted from three shell vials) ([2]; time of treatment 6 hours before CMV infection): 276 | # of Foci (average # of stained nuclei counted from three shell vials) ([2]; time of treatment 18 hours before CMV infection): 360* | response of mink lung cells to NaB treatment versus NaB treated MRC-5 cells (in words) ([2]; CMV infection, Table 3): better response | # positive stained nuclei ([2]; NaB 5 mM, 16 to 24 hours before CMV inoculation, mink lung cells): 22 | Mink lung cells # of stained nuclei ([2]; NaB 10 mM before CMV infection): 7 and 9 | # positive stained nuclei ([2]; NaB 10 mM before CMV inoculation, mink lung cells): 30 | Mink lung cells # of stained nuclei ([2]; NaB 20 mM before CMV infection): 12 | # positive stained nuclei ([2]; NaB 20 mM before CMV inoculation, mink lung cells): 38 | Mink lung cells # of stained nuclei ([2]; NaB 40 mM before CMV infection): 12 and 23 | # positive stained nuclei ([2]; NaB 40 mM before CMV inoculation, mink lung cells): 71 | Mink lung cells # of stained nuclei ([2]; NaB 80 mM before CMV infection): 26 and 32 | # positive stained nuclei ([2]; NaB 80 mM before CMV inoculation, mink lung cells): 85 | increase in number of stained cells as compared with untreated mink lung cells ([2]; NaB 80 mM, CMV, mink lung cells): about 10 fold | sensitivity for CMV isolation and detection versus MRC-5 cells (in words) ([2]; NaB treated mink lung cells, Table 1): far superior sensitivity | optimum concentration for growth of CMV in mink lung cells ([2]; Table 1): about 80 mM | virus detection at high dilution of inoculum (in words) ([2]; mink lung cells treated with NaB 80 mM, Table 4): the virus is still detected
